# Experimental data published in patent US11617726B2, “Method for preventing, treating, or ameliorating a microbial infection” (priority 2018, dated 2023).
# Tested on: Multidrug Resistant Acinetobacter baumannii Isolates
# Assay: MIC of the micro-emulsions by broth dilution
# Format: cell-based
# Procedure: Nine sterile 7 mL PJ tubes were arranged in a rack in a row. Each tube contained one mL sterile MHB. Seven tubes were labeled as 7.847 mg+256 μg/mL, 3.923 mg+128 μg/mL, 1.961 mg+64 μg/mL, 0.980 mg+32 μg/mL, 0.490 mg+16 μg/mL, 0.245 mg+8 μg/mL and 0.122 mg+4 μg/mL. The eighth and ninth tubes were labeled as positive and negative controls, respectively.
# The micro-emulsion made according to Example 1 was serially diluted to give two-fold dilutions as follows: one mL of the micro-emulsion of Example 1 was dispensed in the first tube (labeled as 7.847 mg+256 μg/mL) to give a concentration of 15.69 mg+512 μg drug/mL MHB. One mL of the first tube was added to the second tube (labeled as 3.923 mg+128 μg/mL) to give a concentration of 7.847 mg+256 μg drug/mL MHB. One mL of the second tube was transferred to the third tube (labeled as 1.961 mg+64 μg/mL) to give a concentration of 3.923 mg+128 drug/mL MHB. One mL of the third tube was added to the fourth tube (labeled as 0.980 mg+32 μg/mL) to give a concentration of 1.961 mg+64 drug/mL MHB. One mL of the fourth tube was dispensed in the fifth tube (labeled as 0.490 mg+16 μg/mL) to give a concentration of 0.980 mg+32 drug/mL MHB. One mL of the fifth tube was dispensed in the sixth tube (labeled as 0.245 mg+8 μg/mL) to give a concentration of 0.490 mg+16 μg drug/mL MHB. One mL of the sixth tube was added to the seventh tube (labeled as 0.122 mg+4 μg/mL) to give a concentration of 0.245 mg+8 μg drug/mL MHB. One mL of the content of the seventh tube was discarded. Inoculum suspensions (at 1-2×10^8 CFU/mL) were diluted 1:100 in MHB to obtain 1×10^6 CFU/mL. One mL of the diluted inoculum suspension (1×10^6 CFU/mL) was transferred to each tube except tube number nine.
# Another nine sterile 7 mL PJ tubes were arranged in a rack in a row. Each tube contained one mL sterile MHB. […]
# All inoculated tubes were incubated for 16-20 hours at 37° C. aerobically. After this incubation period, MIC was determined manually by observing the lowest concentration of antimicrobial agent showing no visible growth (turbidity). […]
structure (smiles),measurement,setting,value
"CC1=CC(=O)C(C(C)C)=CC1=O [Thymoquinone, 2-isopropyl-5-methylbenzo-1,4-quinone]",MIC,Isolate 121,64 µg/mL
same,MIC,Isolate 127,32 µg/mL
same,MIC,Isolate 129,32 µg/mL
